The record followed here is PubChem BioAssay AID463206 (Broad Institute, 2010).

Active and inactive are the calls of the source.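 How the source made its calls: active means caspase luminescence falls with dose and the half-maximal concentration AC50 from the fitted curve is at or below a set limit; inconclusive means flat fit at 30 to 70% signal loss, or invalid fit; inactive means AC50 above the limit, or signal rises instead.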 Bounds are passed on as bounds.

For this assay, the system named is INS-1E cytokine-induced caspase-3/7, Caspase-Glo luminescence, 48 h. The assay is described as follows: inhibitors of cytokine-induced caspase-3/7 activity, dose response, orthogonal assay for beta-cell apoptosis protection project, INS-1E rat cells, luminescence (AID 463206).
With `c1ccc(C(c2ccccc2)N2CCN(c3nc4ccccc4n4cnnc34)CC2)cc1`, the AC50 (as a rule, the midpoint of the concentration-response curve, whichever way the signal moves) is > 26 µM (inactive).

Consider `Cc1cc(/C=N/n2cnnc2)c(C)n1-c1ccc(OCc2ccccc2F)cc1`, for which the AC50 was > 26 µM (inactive).

Regarding `C#CC(=O)N(c1cccc(OC)c1)C(C(=O)NC1CCCC1)c1cccs1` (stereo not drawn), the AC50 was > 26 µM (inactive).

Turning to `CCOC(=O)N1CCN(C(=O)CSCC(=O)Nc2nc(-c3ccc(-c4ccccc4)cc3)cs2)CC1`, the AC50 is > 26 µM (inactive).

For the molecule `C=CCn1c(C)c(/C=C/c2cc[n+](C)cc2)c2ccccc21`, the AC50 was > 26 µM (inactive).

`CCCCCCCCCCCCCCCC[N+](C)(C)CC`: the AC50 is > 26 µM (inactive).

Turning to `COc1ccccc1/C=C1\SC(=O)N(CCC(=O)NCCCn2ccnc2)C1=O`, the AC50 was > 26 µM (inactive).

Turning to `O=C1C=C(c2cccs2)C[C@H](c2ccccc2)[C@H]1n1nnc([N+](=O)[O-])n1`, the AC50 was > 26 µM (inactive).

`CSc1ccccc1OCc1cc(C(=O)N2CCc3c(Cl)cccc3C2)no1`: the AC50 was > 26 µM (inactive).

For `Cc1ccc(C#CC[N+]2(CC#Cc3ccc(C)cc3)CCCCC2)cc1`, the AC50 is > 26 µM (inactive).

With `CCCCCc1ccc(OCCCC[n+]2cccc(C)c2)c(CCCCC)c1`, the AC50 is > 26 µM (inactive).

For the molecule `Cc1ncc(CO)c(/C=N/Nc2ccc(C(F)(F)F)cn2)c1O`, the AC50 is > 26 µM (inactive).

For the molecule `CCC1(c2ccc(F)cc2)NC(=O)N(CC(=O)Nc2ccc(-c3nc4ccc(C)cc4s3)cc2)C1=O` (stereo not drawn), the AC50 was > 26 µM (inactive).

`N=c1c2c(-c3ccccc3)c(-c3ccccc3)n(Cc3ccco3)c2ncn1Cc1ccccc1`: the AC50 is > 26 µM (inactive).

With `O=C(CCl)N(c1ccccc1)C1CCCCC1`, the AC50 was > 26 µM (inactive).

`Cc1ccc2nc(NC(=O)/C=C/c3ccc4c(c3)OCO4)sc2c1`: the AC50 was > 26 µM (inactive).

Consider `C/C(=N\NC(=O)c1c(C)nc2ccccn12)c1ccc(O)cc1O`, for which the AC50 is > 26 µM (inactive).

On to `COc1ccc2c(C(=O)NCc3ccc4c(c3)OCO4)c(-c3ccc(S(C)(=O)=O)cc3)sc2c1`, for which the AC50 is > 26 µM (inactive).

Take `COc1ccc(N=C2S/C(=C\c3ccc(N4CCOCC4)o3)C(=O)N2CCc2c[nH]c3ccccc23)cc1`: the AC50 was > 26 µM (inactive).

Take `Cc1ccc(C(=O)Nc2nc(-c3ccccn3)cs2)cc1S(=O)(=O)N1CCOCC1`: the AC50 was > 26 µM (inactive).

On to `CCC(C)(C)c1ccc(OCCCC[n+]2ccc(C)cc2)c(C(C)(C)CC)c1`, for which the AC50 is > 26 µM (inactive).

Turning to `COc1ccc2cc1Oc1ccc(cc1)C[C@H]1c3c(cc(OC)c4c3Oc3c(ccc5c3[C@H](C2)N(C)CC5)O4)CCN1C`, the AC50 is > 26 µM (inactive).

`N#Cc1c2ccc([N+](=O)[O-])cc2[n+]([O-])n1-c1ccccc1`: the AC50 is > 26 µM (inactive).

Consider `CC(Oc1ccc(Br)cc1)c1nc2c3ccccc3nc(=S)n2[nH]1` (stereo not drawn), for which the AC50 is > 26 µM (inactive).

`O=C1C(=O)c2ccccc2-c2ccccc21`: the AC50 is > 26 µM (inactive).

Turning to `Cc1cc(C)nc(-n2nc(C)cc2Nc2ccccc2)n1`, the AC50 was > 26 µM (inactive).

Turning to `O=C(CSc1nnc(Cn2nnc3ccccc32)o1)N(Cc1ccc(Cl)cc1)c1ccccc1`, the AC50 was > 26 µM (inactive).

On to `O=C(C[C@@H]1C/C=C/CC[C@H](Cc2ccc(F)cc2)C(=O)OC[C@@H](Cc2ccccc2)NC1=O)N[C@H](CO)Cc1ccccc1`, for which the AC50 was > 26 µM (inactive).

With `CN1/C(=C\C(=O)C[n+]2cccc(Br)c2)C(C)(C)c2ccccc21`, the AC50 was > 26 µM (inactive).

Take `O=C(c1ccc(-c2ccc(Cl)cc2)o1)N1CCN(c2ccc([N+](=O)[O-])cc2Cl)CC1`: the AC50 is > 26 µM (inactive).

`O=[N+]([O-])c1c(Nc2ccccn2)cc(Cl)c2nonc12`: the AC50 was > 26 µM (inactive).

As for `Cc1[nH]c(N=Nc2ccccc2)nc1N=Nc1ccccc1`, the AC50 was > 26 µM (inactive).

On to `CCCCCCCCCCn1ccc(=N)cc1`, for which the AC50 is > 26 µM (inactive).

Take `OC(CNCCC1C=Nc2ccccc21)Cn1c2ccc(Cl)cc2c2cc(Cl)ccc21` (stereo not drawn): the AC50 was > 26 µM (inactive).

Turning to `Cc1ccc([N+](=O)[O-])cc1N(CC(=O)Nc1ccc(S(=O)(=O)Nc2cccc(C(F)(F)F)c2)cc1)S(C)(=O)=O`, the AC50 was > 26 µM (inactive).

As to `COc1ccc(-c2nn(-c3ccccc3)cc2/C=N/Nc2ccc3ccccc3n2)cc1OC`, the AC50 is > 26 µM (inactive).

For the molecule `COCCN(C(=O)COC(=O)C1CCC(C(C)(C)C)CC1)c1c(N)n(Cc2ccccc2)c(=O)[nH]c1=O` (stereo not drawn), the AC50 is > 26 µM (inactive).

On to `CC(C)CNC(=O)COC(=O)c1c2c(nc3ccccc13)/C(=C/c1cccs1)CC2`, for which the AC50 is > 26 µM (inactive).

For the molecule `COc1ccc(CNCCC(c2ccc(OC(C)C)cc2)c2ccccc2OC)cc1` (stereo not drawn), the AC50 was > 26 µM (inactive).

With `O=C1/C(=N\S(=O)(=O)c2cccs2)C([n+]2ccc(CCCc3ccccc3)cc2)=C([O-])c2ccccc21`, the AC50 is > 12 µM (inactive).

Take `O=C(Nc1nc(-c2ccccn2)cs1)c1cccc(-n2cnnn2)c1`: the AC50 is > 26 µM (inactive).

Regarding `Cc1ccc(N=Cc2c(C)[nH]n(-c3nc4ccccc4[nH]3)c2=O)cc1`, the AC50 was > 26 µM (inactive).

For the molecule `Cc1c(C(=O)N(Cc2ccccc2)C(C)C)oc2ccc(S(=O)(=O)N3CCOCC3)cc12`, the AC50 is > 26 µM (inactive).

As to `CCC1CCCCN1C(=O)c1cc(COc2ccc(-n3cncn3)cc2)on1` (stereo not drawn), the AC50 was > 26 µM (inactive).

For `O=C(Nc1ccc(OC(F)(F)F)cc1)Nc1cccc([N+](=O)[O-])c1`, the AC50 was > 26 µM (inactive).

Regarding `N#Cc1c(Nc2ccccc2)sc(C(=O)c2ccc(F)cc2)c1N`, the AC50 was > 26 µM (inactive).

As for `O=S(=O)(Nc1cc(Sc2cccc3cccnc23)c(O)c2ccccc12)c1ccc(F)cc1`, the AC50 is > 26 µM (inactive).

With `CCC1CCCCN1C(=O)c1cc(COc2ccc3ncccc3c2)on1` (stereo not drawn), the AC50 was > 26 µM (inactive).

Consider `FC(F)(F)c1cnc(NNC(=S)Nc2ccc(Cl)cc2)c(Cl)c1`, for which the AC50 was > 26 µM (inactive).

Regarding `Cc1ccc(NC(=O)Cn2c(=O)oc3cc(S(=O)(=O)N4CCC(C)CC4)ccc32)cc1C`, the AC50 was > 26 µM (inactive).

With `Cc1ccc(S(=O)(=O)CC2CSc3nc4ccccc4n32)cc1` (stereo not drawn), the AC50 is > 12 µM (inactive).

As to `COc1ccc(S(=O)(=O)Nc2ccc3oc(C)c(C(C)=O)c3c2)cc1`, the AC50 is 22.6 µM.

For the molecule `COc1ccc(-n2c(-c3ccc(Cl)cc3)c[n+]3c2CCc2ccccc2-3)cc1`, the AC50 is > 26 µM (inactive).

In the case of `CCn1c(=NC(=O)CCS(=O)(=O)c2ccccc2)sc2cccc(OC)c21`, the AC50 was > 12 µM (inactive).

Consider `CCCCCCCCCCOC(=O)Cn1c(COc2ccc(C)cc2)[n+](C)c2ccccc21`, for which the AC50 was > 26 µM (inactive).

For `CCC(Sc1nc(C)cc(C)n1)C(=O)NC1=NN=C(c2ccc(C)cc2)CS1` (stereo not drawn), the AC50 was > 26 µM (inactive).

Turning to `CCCOc1ccc(Cc2c(Cl)nc(SC)nc2NC)cc1`, the AC50 was > 26 µM (inactive).

`Cc1ccc(NC(=O)c2nc(S(=O)(=O)Cc3ccccc3)ncc2Cl)cc1`: the AC50 was > 26 µM (inactive).

For `O=C(Cc1ccc([N+](=O)[O-])cc1)Nc1cccnc1`, the AC50 is > 26 µM (inactive).

Consider `N#CC(C#N)=C1C=CC=CN1/C(=C\c1ccco1)C(=O)c1ccc(Br)cc1`, for which the AC50 was > 26 µM (inactive).

For the molecule `CCCC(=O)NC(c1ccc(Cl)cc1)c1ccc2cccnc2c1O` (stereo not drawn), the AC50 was > 26 µM (inactive).

As for `COc1cc(C(=O)N/N=C(\C)c2ccccn2)cc(OC)c1OC`, the AC50 was > 26 µM (inactive).

For `Cc1cc(C)c(OCC(O)CNC(C)(C)C)c(C)c1` (stereo not drawn), the AC50 is > 26 µM (inactive).

For the molecule `Cc1csc2c(N3CCN(C(=O)c4ccc(C(C)(C)C)cc4)CC3)ncnc12`, the AC50 was > 26 µM (inactive).

For `Cc1sc2ncnc(NCC(C)(C)N3CCOCC3)c2c1C`, the AC50 was > 26 µM (inactive).

For the molecule `CCCC[n+]1ccn(C2=C([O-])c3ccccc3C(=O)/C2=N\S(=O)(=O)c2ccc(Cl)cc2)c1`, the AC50 is > 26 µM (inactive).

Regarding `COc1ccc(C(=O)N/N=C/c2cc(Br)ccc2O)cc1OC`, the AC50 is > 26 µM (inactive).

For `CCOC(=O)c1ccc(NC(=O)Cn2cnc3cc(C)c(C)cc32)cc1`, the AC50 is > 26 µM (inactive).

On to `O=S1(=O)C=C(Sc2nnc(-c3ccccc3)o2)c2ccccc21`, for which the AC50 is > 26 µM (inactive).

As for `CCCCCN=Cc1c(C)[nH]n(-c2nc3ccccc3s2)c1=O`, the AC50 is > 26 µM (inactive).

Take `O=[N+]([O-])c1ccc(/C=N/n2c(CO)nc3ccccc32)s1`: the AC50 was > 26 µM (inactive).

With `COc1ccc(C2NCCc3c2[nH]c2ccccc32)cc1COc1ccc(F)cc1` (stereo not drawn), the AC50 was > 26 µM (inactive).

With `CCOc1ccc(-n2c(-c3ccccc3)c[n+]3c2CCCCC3)cc1`, the AC50 is > 26 µM (inactive).

With `Oc1c(Br)cc(Br)cc1/C=N/Nc1ccc(Cl)nn1`, the AC50 is > 26 µM (inactive).

In the case of `CSc1ccc(S(=O)(=O)Nc2ccc(N3CCOCC3)c(Cl)c2)cc1`, the AC50 was > 26 µM (inactive).

As to `C=C(C(=O)c1ccccc1)C(C(=C)C(=O)c1ccccc1)c1ccc(OC)cc1`, the AC50 is > 26 µM (inactive).

In the case of `CCOc1ccc(/C=N/Nc2ccc(Cl)nn2)c(O)c1`, the AC50 is > 26 µM (inactive).

As for `c1ccc(N2CCN(c3nc(-c4ccccn4)nc4ccccc34)CC2)cc1`, the AC50 is > 26 µM (inactive).

In the case of `Brc1ccc(-[n+]2c(-c3ccccc3)cc(-c3ccccc3)cc2-c2ccccc2)cc1`, the AC50 is > 26 µM (inactive).

Regarding `CCN(CC)C(=O)c1ccc(S(=O)(=O)N2CCC(c3nc4ccccc4s3)CC2)cc1`, the AC50 is > 26 µM (inactive).

As for `O=C(Cc1ccccc1)N/N=C/c1ccc([N+](=O)[O-])s1`, the AC50 is > 26 µM (inactive).

For the molecule `CC1=NNC(=O)/C1=C\c1cn(-c2ccccc2)nc1-c1cccs1`, the AC50 was > 26 µM (inactive).

Consider `O=c1c2ccccc2nc(COc2ccccc2)n1/N=C/c1ccc(O)cc1O`, for which the AC50 was > 26 µM (inactive).
